This is an account of results in US20080206311A1, “Sucrase Activity Inhibitor, Glucoamylase Activity Inhibitor and Food and Feed Containing the Same” (MITSUI SUGAR CO., LTD., priority 2005, published 2008).

The structures appear in SMILES notation. “Also recorded” adds a separate entry of the source.

Assay [1] concerns maltase. The experiment in a line: Maltase activity inhibition with rat small-intestinal enzyme liquid, substrate maltose. The class given is biochemical. Conditions: 5% maltose + 5% test sample. As for the experimental part: (§1) Palatinose (trade name: Palatinose IC, ex Shin Mitsui Sugar Co., Ltd.) (test sample) was used as a sample for investigating each enzyme activity inhibitory effect. Maltose and sucrose were used as substrates for maltase and sucrose, respectively. The test sample and the substrates were dissolved in 0.1 M phosphate buffer (pH 6.8) at the concentration shown in Table 1 below to prepare test solutions (Solutions 4 and 5). Also, the test sample or the substrates were dissolved in 0.1 M phosphate buffer (pH 6.8), respectively to at the concentration shown in Table 1 below to prepare control solutions (Solution 1 for the test sample and Solutions 2 and 3 for the substrates).
Two grams of rat small-intestinal acetone powder (ex Sigma Corporation) were dissolved in 20 ml of 0.1 M phosphate buffer (pH 6.8), left standing one day at 5° C., and subsequently subjected to centrifugal separation (8000 rpm×15 min.). The supernatant was filtered through a 0.8 μm membrane filter to obtain a small-intestinal enzyme liquid. This liquid contained a mixture of enzymes present in small intestine, such as sucrose, glucoamylase, maltase, and isomaltase. […]
(§2) The glucose concentration in each solution after the reaction was measured using the F-kit Glucose (ex Roche). A liberated glucose concentration (g/l) was calculated by subtracting the blank value (0.1 M phosphate buffer alone) and the concentration of glucose originally contained in the test sample from each glucose concentration measured.
Next, each of the liberated glucose concentration was input in the following equation to obtain decomposition inhibition ratio for maltase and sucrose. […] The decomposition inhibition ratio was determined as a measure for the inhibitory effect. […]
Each 5 ml of the aforementioned test solutions and control solutions was subjected to the enzymatic reaction in the same procedures as in Example 1. The liberated glucose concentration, the decomposition inhibition ratio for maltase and the decomposition inhibition ratio for sucrose were calculated for each solution after the reaction.

The target of another assay is T1, sucrase (Rattus norvegicus, UniProt P23739).
T1 construct: This liquid contained a mixture of enzymes present in small intestine, such as sucrose, glucoamylase, maltase, and isomaltase; tissue Sigma Corporation; host or cells: rat small intestine (acetone powder), buffer extract, unpurified
Nature of the assay: Sucrase activity inhibition with rat small-intestinal enzyme liquid, substrate sucrose. The class given is biochemical. As for the experimental part:
as §1
(§3) Two grams of rat small-intestinal acetone powder (ex Sigma Corporation) were dissolved in 20 ml of 0.1 M phosphate buffer (pH 6.8), left standing one day at 5° C., and subsequently subjected to centrifugal separation (8000 rpm×15 min.). The supernatant was filtered through a 0.8 μm membrane filter to obtain a small-intestinal enzyme liquid. This liquid contained a mixture of enzymes present in small intestine, such as sucrose, glucoamylase, maltase, and isomaltase.
(§4) Each 0.25 ml of the small-intestinal enzyme liquid was added to each 5 ml of Solutions 1 through 5 and placed in a water bath at 37° C. to allow them to react for 60 min. while shaken at 60 strokes/min. After the reaction, they were heated in a boiling water bath for 3 min. for inactivation of the enzymes.
as §2
Next, each of the liberated glucose concentration was input in the following equation to obtain decomposition inhibition ratio for maltase and sucrose. In the present tests, the substrates and the inhibitors were decomposed by enzymes present in the small-intestinal enzyme liquid. However, the enzymes decomposing the substrates are different from the enzymes decomposing the inhibitors. The decomposition inhibition ratio was determined as a measure for the inhibitory effect. When the inhibitor was added, the glucose concentration was lower than that seen when the substrate alone was reacted. A higher decomposition inhibition ratio means a stronger inhibitory effect.
Decomposition inhibition ratio,%={(A+B)−(AB)}+(A+B)×100 [Equation 1]
wherein (A+B) indicates a sum of a liberated glucose concentration in the control solution containing the test sample alone after the reaction (A) and a liberated glucose concentration in the control solution containing the substrate alone after the reaction (B); and (AB) indicates a liberated glucose concentration in the test solution containing the test sample (A) and the substrate (B), after the reaction.
The procedures in Example 1 were repeated with the exception that the test solutions contained 5% of sucrose and 0.5%, 1.0%, 3.0% or 5.0% of palatinose to examine intensity of the sucrose activity inhibition. A control solution contained 5% of sucrose in 0.1 M phosphate buffer (pH 6.8).
The procedures in Example 1 were repeated with the exception that palatinit and palatinose were used as test samples and sucrose was used as a substrate. The test samples and the substrate were dissolved in 0.1 M phosphate buffer (pH 6.8) to attain the concentration shown in Table 3 to thereby prepare two test solutions. Besides, each one of the test samples or the substrate was dissolved in 0.1 M phosphate buffer (pH 6.8) to attain the concentration shown in Table 3 to thereby prepare control solutions. Each 5 ml of the aforementioned test solutions or the control solutions was subjected to the enzymatic reaction according to the same procedures as in Example 1. The glucose concentration and the fructose concentration were measured. […]

In assay [2] the test system is small-intestinal enzyme liquid. The experiment in a line: Decomposition of a saccharide alone (control solution) by small-intestinal enzyme liquid. The class given is biochemical, rat. Conditions: 5% saccharide alone. As for the experimental part:
as §1, §3, §4, §2
The fructose concentration was measured using the F-kit Fructose (ex Roche). The liberated fructose concentration, g/l, was obtained by subtracting the blank value (0.1 M phosphate buffer alone) from the resultant fructose concentration.
The procedures in Example 1 were repeated with the exception that palatinit, palatinose or isomaltose was used as a test sample and lactose was used as a substrate. The test samples and the substrate were dissolved in 0.1 M phosphate buffer (pH 6.8) to attain the concentration shown in Table 5 to thereby prepare three test solutions. Besides, each of the test samples or the substrate was dissolved in 0.1 M phosphate buffer (pH 6.8) to attain the concentration shown in Table 5 to thereby prepare control solutions. Each 5 ml of the aforementioned test solutions and the control solutions was subjected to the enzymatic reaction according to the same procedures as in Example 1. The glucose concentration, the fructose concentration and the galactose concentration were measured. The galactose concentration was measured using F-kit Galactose (ex Roche). The liberated galactose concentration, g/l, was calculated by subtracting the blank value (0.1 M phosphate buffer alone) from the measured galactose concentration.

In assay [3] the test system is maltase. Particulars: maltose as substrate; Non-Patent Publication 4; cited from earlier work.
[4] abbreviates: 5% sucrose + 5% test sample, Example 3 / Test Example 2.

T1 sequence (P23739 whole entry): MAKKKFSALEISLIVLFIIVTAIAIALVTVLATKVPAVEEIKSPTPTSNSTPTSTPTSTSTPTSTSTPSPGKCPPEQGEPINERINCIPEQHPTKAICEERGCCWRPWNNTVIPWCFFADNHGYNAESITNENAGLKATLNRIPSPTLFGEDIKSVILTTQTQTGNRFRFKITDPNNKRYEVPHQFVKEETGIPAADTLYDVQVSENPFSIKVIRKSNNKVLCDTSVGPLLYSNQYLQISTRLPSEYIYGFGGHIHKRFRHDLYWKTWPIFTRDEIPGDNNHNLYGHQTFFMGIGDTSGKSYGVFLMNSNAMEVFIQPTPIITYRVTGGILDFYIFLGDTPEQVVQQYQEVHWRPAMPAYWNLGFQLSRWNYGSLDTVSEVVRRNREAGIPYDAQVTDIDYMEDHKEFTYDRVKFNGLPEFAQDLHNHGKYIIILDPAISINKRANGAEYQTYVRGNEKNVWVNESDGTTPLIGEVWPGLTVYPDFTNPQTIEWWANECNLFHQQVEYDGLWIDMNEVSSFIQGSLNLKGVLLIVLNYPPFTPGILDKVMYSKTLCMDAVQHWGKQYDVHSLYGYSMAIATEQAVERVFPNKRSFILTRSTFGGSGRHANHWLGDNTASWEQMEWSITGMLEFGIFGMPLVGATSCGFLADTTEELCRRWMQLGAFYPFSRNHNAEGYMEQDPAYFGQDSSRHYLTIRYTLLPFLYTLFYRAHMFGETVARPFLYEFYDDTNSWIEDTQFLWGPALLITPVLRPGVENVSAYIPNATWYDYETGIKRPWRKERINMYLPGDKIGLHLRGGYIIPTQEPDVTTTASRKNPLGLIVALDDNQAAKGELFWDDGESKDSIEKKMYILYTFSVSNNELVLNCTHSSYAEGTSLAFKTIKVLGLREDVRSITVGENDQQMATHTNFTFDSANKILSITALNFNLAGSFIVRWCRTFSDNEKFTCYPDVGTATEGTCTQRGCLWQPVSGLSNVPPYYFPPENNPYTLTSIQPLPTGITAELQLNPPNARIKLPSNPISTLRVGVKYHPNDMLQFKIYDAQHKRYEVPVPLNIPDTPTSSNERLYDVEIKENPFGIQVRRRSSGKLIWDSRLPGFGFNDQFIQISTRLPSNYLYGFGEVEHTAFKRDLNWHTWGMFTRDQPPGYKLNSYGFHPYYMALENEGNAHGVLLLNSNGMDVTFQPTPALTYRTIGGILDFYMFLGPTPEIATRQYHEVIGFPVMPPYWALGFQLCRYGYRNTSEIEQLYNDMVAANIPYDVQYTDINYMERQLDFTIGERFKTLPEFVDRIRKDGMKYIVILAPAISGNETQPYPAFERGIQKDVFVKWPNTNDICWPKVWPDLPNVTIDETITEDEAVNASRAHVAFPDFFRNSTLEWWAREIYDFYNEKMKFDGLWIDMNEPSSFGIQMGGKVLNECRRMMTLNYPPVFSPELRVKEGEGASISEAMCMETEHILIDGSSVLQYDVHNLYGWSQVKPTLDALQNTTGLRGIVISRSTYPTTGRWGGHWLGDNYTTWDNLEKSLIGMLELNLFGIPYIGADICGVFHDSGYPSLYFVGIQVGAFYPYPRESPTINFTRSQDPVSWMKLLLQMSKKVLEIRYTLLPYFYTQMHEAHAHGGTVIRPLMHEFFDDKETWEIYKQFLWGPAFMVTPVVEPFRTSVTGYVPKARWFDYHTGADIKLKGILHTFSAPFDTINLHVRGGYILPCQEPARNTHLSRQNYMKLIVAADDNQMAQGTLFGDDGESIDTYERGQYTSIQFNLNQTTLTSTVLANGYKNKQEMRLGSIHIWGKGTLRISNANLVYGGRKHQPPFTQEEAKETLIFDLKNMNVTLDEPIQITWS

For `OC[C@H]1O[C@H](OC[C@H]2OC(O)(CO)[C@@H](O)[C@@H]2O)[C@H](O)[C@@H](O)[C@@H]1O` (stereo partly shown) [palatinose, isomaltulose], in the assay on maltase [1], the “Maltase activity inhibitory effect (in words)” value is reported as “has a maltase activity inhibitory effect”. Further, the Liberated glucose concentration with maltase [1] (37° C., 60 min) was 4.757 ± 0.342 g/L; on sucrase (5% sucrose + 5% test sample, 37° C., 60 min, Example 1 / Test Example 1), 0.803 ± 0.055 g/L; on sucrase (setting [4]), 0.79 g/L; in assay [2] (37° C., 60 min, pH 6.8, Example 1 / Test Example 1), 0.095 ± 0.010 g/L; in assay [2] (Example 3 / Test Examples 2, 3), 0.11 g/L; in assay [2] (Example 4) it was 0.205 g/L. Further, the “Decomposition inhibition ratio, %, against maltase” value in the assay with maltase [1] (Equation 1) turned out to be 6%. Besides, at sucrase (5% sucrose + 0.5%, 1.0%, 3.0% or 5.0% palatinose), the “Intensity of the sucrase activity inhibition, dependence on concentration (FIG. 1)” value is listed as “inhibits sucrose activity depending upon its concentration”. Further, the “Sucrase activity inhibitory effect (in words)” value on sucrase (5% sucrose + 5% test sample) is on record as “a sucrose activity inhibitory effect; also recorded: have a sucrose inhibitory effect”. The “Decomposition inhibition ratio, %, against sucrase” value at sucrase (5% sucrose + 5% test sample, Equation 1, Example 1 / Test Example 1) was determined as 24%; on sucrase (setting [4]), 29%. For the same compound, the Liberated fructose concentration on sucrase (setting [4]) is 1.05 g/L; in assay [2] (Example 3 / Test Examples 2, 3), 0.21 g/L. Further, in assay [2] (Test Example 3), the Liberated galactose concentration worked out at 0.00 g/L. In addition, the “Maltase activity inhibitory effect (reported)” value in the assay on maltase [3] is recorded as “have a maltase activity inhibitory effect”.
